Consider nine compounds from patent US7384935B2 (Thallion Pharmaceuticals, Inc., priority 2005, dated 2008).

Read-outs that look alike come from different tables or passages of the source.

Data set [1] has as its system HT-29, SF268, MDA-MB-231 and PC-3. Nature of the data set: In vitro cytotoxic activity, four cell lines together (average / overall statement). Particulars: for GI50: read-out: In vitro Cytotoxic Activities GI50, Average; for exhibited in vitro anticancer activity at 30 μM: four cell lines.
The subject of data set [2] is MDA-MB-231 (mammary gland adenocarcinoma). Nature of the data set: In vitro cytotoxic activity (GI50), propidium iodide dye indicator. Type of data set: cell-based. Particulars: MDA-MB-231, 96 hrs incubation, read-out: In vitro Cytotoxic Activities GI50, MDA-MB-231. The source says: (§1) Procedure used for the tests is described below.
Data set [3] has as its system PC-3 (prostate adenocarcinoma). The description is as above. The format is cell-based. Particulars: PC-3, 96 hrs incubation; read-out: In vitro Cytotoxic Activities GI50, PC-3.
Description: as §1

The subject of another data set is SF268 (CNS). Described as above. The format is cell-based. Conditions: SF-268, 96 hrs incubation, read-out: In vitro Cytotoxic Activities GI50, SF-268.
Description: as §1

In data set [4] the test system is HT-29 (colorectal carcinoma). The data set is described as above. Conditions: read-out: In vitro Cytotoxic Activities GI50, HT-29.
The nature of the next data set: in vivo. Conditions: Sprague-Dawley, rat, plasma, iv, 30 mg/kg.
Data set [5] is described as follows: Conversion to Compound 1 by rat liver homogenate. Type of data set: in vitro ADME, Sprague Dawley rats. Conditions: 37° C. The procedure: The aim of this test was to determine if the phosphate prodrugs were cleaved by phosphatases present in the liver.
Rat liver (3 g from Sprague Dawley rats) was weighed into a centrifuge tube and 12 mL of Buffer A was added, representing a 1:4 tissue/buffer ratio, which were homogenized for at least 30 seconds at ambient temperature.
Stock solutions of test article, control and internal standards were prepared as shown in Table 8 by diluting the compound in the appropriate solvent.
Liver homogenate (180 μL) was transferred into Eppendorf™ tubes (polypropylene, size 1.8 mL). Tubes for Blank, 0 min, 30 min, 1 h, 2 h, 3 h, 4 h and 5 h for each concentration of compound to be tested. Blank tubes were prepared by adding 200 μL of homogenate per tube.
Immediately after vortexing, the 0 min samples (for calibration) were extracted with extraction Methods A and B (see below). The remaining tubes were incubated at 37° C. for the prescribed length of time.
The mixture was allowed to stand for 10 minutes at room temperature. It was then centrifuged at 13000 RPM for 5 minutes at 4° C. The supernatant was tested by LC-MS/MS (Method B).
A volume of 800 μL of acetonitrile containing IS 200 ng/mL (Stock F) was added to the homogenate and the mixture vortexed for 30 sec. The mixture was allowed to stand at room temperature for 10 minutes, and was centrifuged at 13000 RPM for 5 minutes at 4° C. The supernatant was tested by LC-MS/MS (Method A).
Both LC methods were accomplished using the same HPLC system (Agilent Technologies 1100 with Binary pump and autosampler, and an Agilent 1100 Autosampler needle wash to avoid contamination of the needle. Both MS/MS method were done using a MDS Sciex™ MS system under positive electrospray ionization.
Multiple Reaction Monitoring (MRM) was used as scan type in Method A MS/MS.
LC Method B (long method) was done using 20 μL of test solution on a Waters Symmetry™ C-18, 3.5μ (3.0×100 mm id) and a divert pump flow rate of 1.0 ml/min using the conditions described in Table 10.
Enhanced Product Ion (EPI) was used as scan type in Method B MS/MS.

Where [6] appears, read: average of HT-29, SF-268, PC-3, MDA-MB-231.

Description for in vivo: Each blood sample (approximately 0.5 mL) was collected into microtainer tubes containing anticoagulant K2EDTA. The samples were centrifuged at a temperature ranging from about 2 to about 8° C. for 10 minutes at 1500 g (RCF). A volume of 25 μL of 4% w/v L-aqueous acid was added to a volume of 225 μL of rat plasma in a clean tube, and the samples were mixed by inversion.
LOQ and LOD values were determined according to the concentration range used in the experiment, using a MDS Sciex API 2000™ Q-Trap™. Mean concentration values and standard deviation (SD) were calculated at each timepoints of the pharmacokinetic study (n=3 animals/timepoint).
Blood was collected, centrifuged and analyzed as above.

Turning to `CC(=O)Oc1cc(OC(C)=O)c2c(c1)N(C/C=C(\C)CC/C=C(\C)CCC=C(C)C)C(=O)c1cccc(OC(C)=O)c1N2` [A, reference compound], the GI50 in data set [1] (setting [6]) was 3.82 µM; in data set [2], 2.79 µM; in data set [3] it was 1.2 µM; with SF268 (CNS), 1.95 µM; in data set [4] (HT-29, 96 hrs incubation), 9.33 µM.
For `CC(=O)Oc1cccc2c1Nc1c(OC(C)=O)cc(O)cc1N(C/C=C(\C)CC/C=C(\C)CCC=C(C)C)C2=O` [B, reference compound], in that order: 4.6 µM, 2.48 µM, 1.44 µM, 1.88 µM and 12.6 µM.
In the case of `CC(=O)Oc1cc(O)c2c(c1)N(C/C=C(\C)CC/C=C(\C)CCC=C(C)C)C(=O)c1cccc(OC(C)=O)c1N2` [C, reference compound], the GI50 in data set [1] (setting [6]) was 8.72 µM; in data set [2] it was 7.72 µM; in data set [3] it was 5.35 µM; in the data set with SF268 (CNS), 5.79 µM; in data set [4] (HT-29, 96 hrs incubation), 16 µM.
In turn, `CC(C)=CCC/C(C)=C/CC/C(C)=C/CN1C(=O)c2cccc(O)c2Nc2c(O)cc(O)cc21` [Compound 1, 10-farnesyl4,6,8-trihydroxy-5,10-dihydrodibenzo[b,e][1,4]diazepin-11-one] came in with an AUC in the data set “in vivo” of 70200 ng·h/mL.
For `CC(C)=CCC/C(C)=C/CC/C(C)=C/CN1C(=O)c2cccc(OP(=O)(OCc3ccccc3)OCc3ccccc3)c2Nc2c(OP(=O)(OCc3ccccc3)OCc3ccccc3)cc(OP(=O)(OCc3ccccc3)OCc3ccccc3)cc21` [Compound 2, 10-farnesyl-4,6,8-tri(bisbenzyloxyphosphoryloxy)-5,10-dihydro-dibenzo[b,e][1,4]diazepin-11-one], the “exhibited in vitro anticancer activity at 30 μM” value (from here on “exhibited”) in data set [1] was “None”. For the same compound, the GI50 is greater than 30 µM in data set [1]; greater than 30 µM in data set [2] (Homo sapiens); greater than 30 µM in data set [3]; greater than 30 µM in the data set with SF268 (CNS) (Homo sapiens); greater than 30 µM in data set [4] (Homo sapiens, HT-29, 96 h).
As for `CC(C)=CCCC(C)=CCCC(C)=CCN1C(=O)c2cccc(OP(=O)(O)OCc3ccccc3)c2Nc2c(OP(=O)(O)OCc3ccccc3)cc(OP(=O)(O)OCc3ccccc3)cc21.N.N.N` [Compound 9 (NH4^+)3, 10-farnesyl-4,6,8-tri(benzyloxyhydroxyphosphoryloxy)-5,10-dihydro-dibenzo[b,e][1,4]diazepin-11-one triammonium salt], in data set [1], the “exhibited” value is reported as “None”. The GI50 in data set [1] was greater than 30 µM; in data set [2] (Homo sapiens), greater than 30 µM; in data set [3] it was greater than 30 µM; in the data set with SF268 (CNS) (Homo sapiens) it was greater than 30 µM; in data set [4] (Homo sapiens, HT-29, 96 h), greater than 30 µM. This compound also showed a solubility in the data set “physchem” greater than 40 mg/mL. Besides, the “Concentration of Compound 9 (remaining prodrug) vs Time of Incubation” value is 1840 ng/mL in data set [5] (initial conc. 5 μg/mL in homogenate, 0 min); 2040 ng/mL in data set [5] (initial conc. 5 μg/mL in homogenate, 0.5 h); 2570 ng/mL in data set [5] (initial conc. 5 μg/mL in homogenate, 1 h); 856 ng/mL in data set [5] (initial conc. 5 μg/mL in homogenate, 2 h); 544 ng/mL in data set [5] (initial conc. 5 μg/mL in homogenate, 3 h); “<LOD” in data set [5] (initial conc. 5 μg/mL in homogenate, 4 h). The “Concentration of Compound 9 (remaining prodrug) vs Time of Incubation” value in data set [5] (initial conc. 5 μg/mL in homogenate, 5 h) is given as “<LOD”; in data set [5] (initial conc. 20 μg/mL in homogenate, 0 min), 13300 ng/mL; in data set [5] (initial conc. 20 μg/mL in homogenate, 0.5 h), 14600 ng/mL; in data set [5] (initial conc. 20 μg/mL in homogenate, 1 h) it was 9030 ng/mL; in data set [5] (initial conc. 20 μg/mL in homogenate, 2 h), 2970 ng/mL; in data set [5] (initial conc. 20 μg/mL in homogenate, 3 h), 1530 ng/mL. The “Concentration of Compound 9 (remaining prodrug) vs Time of Incubation” value in data set [5] (initial conc. 20 μg/mL in homogenate, 4 h) is 1080 ng/mL; in data set [5] (initial conc. 20 μg/mL in homogenate, 5 h), 948 ng/mL.
In the case of `CC(C)=CCC/C(C)=C/CC/C(C)=C/CN1C(=O)c2cccc(OP(=O)(O)O)c2Nc2c(OP(=O)(O)O)cc(OP(=O)(O)O)cc21` [Compound 16], the “exhibited” value in data set [1] is given as “None”. The GI50 in data set [1] was greater than 30 µM; in data set [2] (Homo sapiens), greater than 30 µM; in data set [3], greater than 30 µM; in the data set on SF268 (CNS) (Homo sapiens), greater than 30 µM; in data set [4] (Homo sapiens, HT-29, 96 h), greater than 30 µM. The same compound came in with a solubility in the data set “physchem” greater than 40 mg/mL.
`CC(C)=CCC/C(C)=C/CC/C(C)=C/CN1C(=O)c2cccc(O)c2Nc2c(OP(=O)(O)O)cc(O)cc21.N.N` [Compound 21 (NH4^+)2, 4,8-dihydroxy-10-farnesyl-6-phosphonooxy-5,10-dihydro-dibenzo[b,e][1,4]diazepin-11-one diammonium salt]: the “exhibited” value in data set [1] is given as “None”. Besides, the GI50 is greater than 30 µM in data set [1]; greater than 30 µM in data set [2] (Homo sapiens); greater than 30 µM in data set [3]; greater than 30 µM with SF268 (CNS) (Homo sapiens); greater than 30 µM in data set [4] (Homo sapiens, HT-29, 96 h). This compound came in with a solubility in “physchem” of 5 mg/mL.
With `CC(=O)Oc1cc(OC(C)=O)c2c(c1)N(C/C=C(\C)CC/C=C(\C)CCC=C(C)C)C(=O)c1cccc(O)c1N2` [D, reference compound], the 50% growth inhibitory concentration (GI50) in data set [1] (setting [6]) is 4.48 µM; in data set [2] it was 1.55 µM; in data set [3] it was 1.35 µM; in the data set on SF268 (CNS), 2.02 µM; in data set [4] (HT-29, 96 hrs incubation) it was 13 µM.

In general, GI50 refers to the concentration that inhibits growth by half. As a reminder, the AUC is concentration integrated over time. A higher AUC goes with more exposure. In general, solubility refers to the dissolved amount per volume that the medium holds. Higher therefore signals a readily soluble substance.
